Measurements published in patent US11465975B2, “Certain chemical entities, compositions, and methods” (NeuPharma, Inc., priority 2018, dated 2022).
“And” between values parts separate entries of the source, which are not always exact repeats. Identical values can stand only once.

Columns and labels:
Type in all cases: physicochemical
[1] = Competitive test of Form I and Form VI (suspension equilibration, XRPD check); settings: for Check result at 7 days (form of residual solid, XRPD): room temperature; for Check result at 21 days (form of residual solid, XRPD): 14 days RT then 40° C.; for Check result at 14 days (form of residual solid, XRPD): 7 days RT then 40° C.
Description: X-ray powder diffraction (XRD) patterns were obtained on a Bruker D8 Advance. A CuK source (=1.54056 angstrom) operating minimally at 40 kV and 40 mA scans each sample between 4 and 40 degrees 2-theta. The step size is 0.05° C. and scan speed is 0.5 second per step.
Two polymorphic forms of the compound of Formula I, Form I and Form VI, were suspended at the ratio of 1:1 in various solvents and equilibrated at room temperature for a period of time. The forms of the residual solid were checked at 7 days. If still a mixed form, continued to equilibrate at room temperature or 40° C. The solvents were EtOAc, iPoAc, Acetone, MEK, EtOH, IPA, IPE, MTBE, Hexane and Heptane.
XRPD profiles were acquired at the beginning and end of the experiment and compared to XRPD patterns of the known forms.

[2] = Preliminary accelerated stability test of Form VI (HPLC, XRPD, DSC); settings: for Assay % / Average assay (%) / Peak area % / Total impurity (%): solid; for Assay % / Average assay (%) / Peak area %: HPLC; for Total impurity (%): peak area normalized method
Description: (§1) HPLCs were preformed using the following instrument and/or conditions.
(§2) Form VI of the compound of Formula I was used for the preliminary accelerated stability test. The samples were exposed to different stressed condition (40° C./75% RH and 60° C.) for 2 weeks. Standard controls were placed at −20° C. Samples and corresponding standard controls were pulled out for XRPD, DSC and HPLC analysis at 0 day, 1st week and 2nd week, respectively. The samples placed under condition without humidity were closed tightly with cap. The samples placed under humidity condition were just covered with aluminum foil with pinholes. HPLC steps were performed as described in Example 14.

[3] = Preliminary accelerated stability test of Form I, non-micronized and micronized (HPLC, XRPD, DSC); parameters: RRT 1.09: unit not given here; settings: for Stability tested by HPLC, XRPD and DSC (degradation and crystal conversion): 40° C./75% RH and 60° C. for 2 weeks; for Assay % / Average Total impurity (%) / Average assay (%) / Peak area % / RRT 1.09 / Total impurity (%): solid, HPLC
Description: as §1
as §2, with “Form” for “Form VI of the compound of Formula”, “I (both non-micronized and micronized)” for “I”

C=CC(=O)Nc1cccc(-c2cccc3cnc(Nc4ccc(N5CCN(CCO)CC5)c(F)c4F)nc23)c1 [Form I and Form VI, N-(3-(2-((2,3-difluoro-4-(4-(2-hydroxyethyl)piperazin-1-yl)phenyl)amino)quinazolin-8-yl)phenyl)acrylamide]
Check result at 7 days (form of residual solid, XRPD) ([1]; 1:1 suspension in EtOH): Form III and Form VI | Check result at 7 days (form of residual solid, XRPD) ([1]; 1:1 suspension in IPA): Form VI | Check result at 7 days (form of residual solid, XRPD) ([1]; 1:1 suspension in MEK): Form I | Check result at 21 days (form of residual solid, XRPD) ([1]; 1:1 suspension in MTBE): Form I | Check result at 7 days (form of residual solid, XRPD) ([1]; 1:1 suspension in acetone): Form I | Check result at 14 days (form of residual solid, XRPD) ([1]; 1:1 suspension in ethyl acetate (EtOAc)): Form I | Check result at 21 days (form of residual solid, XRPD) ([1]; 1:1 suspension in heptane): Mixed | Check result at 21 days (form of residual solid, XRPD) ([1]; 1:1 suspension in hexane): Mixed | Check result at 14 days (form of residual solid, XRPD) ([1]; 1:1 suspension in isopropyl acetate (iPoAc)): Form I | Check result at 21 days (form of residual solid, XRPD) ([1]; 1:1 suspension in isopropyl ether (IPE)): Mixed

C=CC(=O)Nc1cccc(-c2cccc3cnc(Nc4ccc(N5CCN(CCO)CC5)c(F)c4F)nc23)c1 [Form VI, N-(3-(2-((2,3-difluoro-4-(4-(2-hydroxyethyl)piperazin-1-yl)phenyl)amino)quinazolin-8-yl)phenyl)acrylamide]
Stability tested by HPLC, XRPD and DSC (degradation and crystal conversion) ([2]; 40° C./75% RH and 60° C. for 2 weeks): No significant degradation and crystal conversion were detected | Assay % ([2]; 40° C./75% RH, 7 days): 91.50% and 91.85% | Average assay (%) ([2]; 40° C./75% RH, 7 days): 91.67% | Peak area % ([2]; 40° C./75% RH, 7 days): 99.0% and 99.1% | Total impurity (%) ([2]; 40° C./75% RH, 7 days): 0.98% and 0.95% | Assay % ([2]; 40° C./75% RH, 14 days): 92.13% and 91.45% | Average assay (%) ([2]; 40° C./75% RH, 14 days): 91.79% | Peak area % ([2]; 40° C./75% RH, 14 days): 99.0% | Total impurity (%) ([2]; 40° C./75% RH, 14 days): 0.99% and 0.96% | Assay % ([2]; 60° C., 7 days): 91.61% and 93.76% | Average assay (%) ([2]; 60° C., 7 days): 92.68% | Peak area % ([2]; 60° C., 7 days): 98.9% and 99.0% | Total impurity (%) ([2]; 60° C., 7 days): 1.10% and 1.04% | Assay % ([2]; 60° C., 14 days): 91.82% and 91.77% | Average assay (%) ([2]; 60° C., 14 days): 91.80% | Peak area % ([2]; 60° C., 14 days): 99.0% and 99.1% | Total impurity (%) ([2]; 60° C., 14 days): 1.01% and 0.94% | Assay % ([2]; −20° C. (standard control)): 92.15% and 92.28% | Average assay (%) ([2]; −20° C. (standard control)): 92.21% | Peak area % ([2]; −20° C. (standard control)): 99.0% | Total impurity (%) ([2]; −20° C. (standard control)): 0.95% and 0.98%

C=CC(=O)Nc1cccc(-c2cccc3cnc(Nc4ccc(N5CCN(CCO)CC5)c(F)c4F)nc23)c1 [non-micronized Form I, N-(3-(2-((2,3-difluoro-4-(4-(2-hydroxyethyl)piperazin-1-yl)phenyl)amino)quinazolin-8-yl)phenyl)acrylamide]
Stability tested by HPLC, XRPD and DSC (degradation and crystal conversion) [3]: No significant degradation and crystal conversion were detected | Assay % ([3]; 40° C./75% RH, 7 d): 98.28% and 98.59% | Average Total impurity (%) ([3]; 40° C./75% RH, 7 d): 0.88% | Average assay (%) ([3]; 40° C./75% RH, 7 d): 98.44% | Peak area % ([3]; 40° C./75% RH, 7 d): 99.12% | RRT 1.09 ([3]; 40° C./75% RH, 7 d): 0.027 and 0.032 | Total impurity (%) ([3]; 40° C./75% RH, 7 d): 0.88% | Assay % ([3]; 40° C./75% RH, 14 d): 98.24% and 97.53% | Average Total impurity (%) ([3]; 40° C./75% RH, 14 d): 0.86% | Average assay (%) ([3]; 40° C./75% RH, 14 d): 97.88% | Peak area % ([3]; 40° C./75% RH, 14 d): 99.14% | RRT 1.09 ([3]; 40° C./75% RH, 14 d): 0.026 and 0.027 | Total impurity (%) ([3]; 40° C./75% RH, 14 d): 0.86% | Assay % ([3]; 60° C., 7 d): 95.99% and 98.78% | Average Total impurity (%) ([3]; 60° C., 7 d): 0.85% | Average assay (%) ([3]; 60° C., 7 d): 97.38% | Peak area % ([3]; 60° C., 7 d): 99.15% | RRT 1.09 ([3]; 60° C., 7 d): 0.030 and 0.028 | Total impurity (%) ([3]; 60° C., 7 d): 0.85% | Assay % ([3]; 60° C., 14 d): 98.38% and 99.25% | Average Total impurity (%) ([3]; 60° C., 14 d): 0.85% | Average assay (%) ([3]; 60° C., 14 d): 98.81% | Peak area % ([3]; 60° C., 14 d): 99.17% and 99.14% | RRT 1.09 ([3]; 60° C., 14 d): 0.028 | Total impurity (%) ([3]; 60° C., 14 d): 0.83% and 0.86% | Assay % ([3]; RT): 98.98% and 99.18% | Average Total impurity (%) ([3]; RT): 0.84% | Average assay (%) ([3]; RT): 99.08% | Peak area % ([3]; RT): 99.18% and 99.14% | RRT 1.09 ([3]; RT): 0.027 | Total impurity (%) ([3]; RT): 0.82% and 0.86%

C=CC(=O)Nc1cccc(-c2cccc3cnc(Nc4ccc(N5CCN(CCO)CC5)c(F)c4F)nc23)c1 [micronized Form I, N-(3-(2-((2,3-difluoro-4-(4-(2-hydroxyethyl)piperazin-1-yl)phenyl)amino)quinazolin-8-yl)phenyl)acrylamide]
Stability tested by HPLC, XRPD and DSC (degradation and crystal conversion) [3]: No significant degradation and crystal conversion were detected | Assay % ([3]; 40° C./75% RH, 7 d): 97.67% and 97.30% | Average Total impurity (%) ([3]; 40° C./75% RH, 7 d): 0.86% | Average assay (%) ([3]; 40° C./75% RH, 7 d): 97.48% | Peak area % ([3]; 40° C./75% RH, 7 d): 99.14% | RRT 1.09 ([3]; 40° C./75% RH, 7 d): 0.029 and 0.024 | Total impurity (%) ([3]; 40° C./75% RH, 7 d): 0.86% | Assay % ([3]; 40° C./75% RH, 14 d): 96.20% and 98.00% | Average Total impurity (%) ([3]; 40° C./75% RH, 14 d): 0.88% | Average assay (%) ([3]; 40° C./75% RH, 14 d): 97.10% | Peak area % ([3]; 40° C./75% RH, 14 d): 99.11% and 99.12% | RRT 1.09 ([3]; 40° C./75% RH, 14 d): 0.028 | Total impurity (%) ([3]; 40° C./75% RH, 14 d): 0.89% and 0.88% | Assay % ([3]; 60° C., 7 d): 98.46% and 97.35% | Average Total impurity (%) ([3]; 60° C., 7 d): 0.85% | Average assay (%) ([3]; 60° C., 7 d): 97.90% | Peak area % ([3]; 60° C., 7 d): 99.15% | RRT 1.09 ([3]; 60° C., 7 d): 0.022 and 0.028 | Total impurity (%) ([3]; 60° C., 7 d): 0.85% | Assay % ([3]; 60° C., 14 d): 98.52% and 98.23% | Average Total impurity (%) ([3]; 60° C., 14 d): 0.87% | Average assay (%) ([3]; 60° C., 14 d): 98.37% | Peak area % ([3]; 60° C., 14 d): 99.12% and 99.13% | RRT 1.09 ([3]; 60° C., 14 d): 0.027 and 0.028 | Total impurity (%) ([3]; 60° C., 14 d): 0.88% and 0.87% | Assay % ([3]; RT): 98.74% and 98.36% | Average Total impurity (%) ([3]; RT): 0.84% | Average assay (%) ([3]; RT): 98.55% | Peak area % ([3]; RT): 99.14% and 99.18% | RRT 1.09 ([3]; RT): 0.029 and 0.024 | Total impurity (%) ([3]; RT): 0.86% and 0.82%
